Test results taken from paper PMC5515432, “A human tissue-based functional assay platform to evaluate the immune function impact of small molecule inhibitors that target the immune system” (PLoS ONE, 2017).
Several values for one entry are separate records, joined by “and”; a condition that tells them apart may be missing. Identical values can stand only once. Entries after “also recorded” stand apart in the source; their conditions may differ. Like-named read-outs stand apart in the source and are kept apart here.

Experiments:
TLR3 [1] = test: TLR3 response: Poly I:C induced IP-10 production in PBMCs
Protocol: (§3) To evaluate TLR3 responses, frozen PBMCs were thawed in culture medium. A total of 2x10^5 PBMCs were seeded per well in a 96-well tissue culture plate for the assay. One hour following incubation with compounds at 37°C, 5% CO2, the PBMCs were treated with a PBMC donor-specific EC80 concentration of the high molecular weight Poly I:C (TLR3 ligand, Invivogen, San Diego, CA) or appropriate controls, and were allowed to incubate at 37°C, 5% CO2 for 24 hours. Twenty four hours following incubation, 120μl of the cell culture supernatant was removed from the cell culture plates and frozen at -80°C until further analysis. To evaluate TLR7 and TLR9 responses, PBMCs were thawed in culture medium, reconstituted to a concentration of 3x10^6 cells/ml, dispensed into ultra-low attachment flasks and incubated at 37°C, 5% CO2 for 24h with continuous rocking. The PBMCs were harvested from the flask, seeded at a density of 2x10^5 PBMCs/well in compound-dispensed assay plates and allowed to incubate at 37°C, 5% CO2 for 24 hours. One hour following incubation with compounds at 37°C, 5% CO2, the PBMCs were treated with a PBMC donor-specific EC80 concentration of high molecular weight CL264 (TL7 ligand, Invivogen, San Diego, CA) or ODN 2395 (TLR9 ligand, Invivogen, San Diego, CA), or appropriate controls, and were allowed to incubate at 37°C, 5% CO2 for 24 hours. Twenty four hours following incubation, 120μl of the cell culture supernatant was removed from the cell culture plates and frozen at -80°C until further analysis. The cell culture supernatants were analyzed for IP-10 or IL-6 levels using MSD kits (Meso Scale Discovery, Rockville, MD) according to manufacturer’s protocols.
(§4) The stimulant was the chemical agent that was used to elicit the response in the assay (i.e., TLR ligands in the TLR assay). We used EC80 stimulation conditions for evaluating the impact of compounds in assays with titrable stimulants. To account for donor-to-donor variability in PBMCs, we used donors that whose EC80 values were within a 3-fold range determined by dose-response experiments with the stimulants.

TLR7 [2] = test: TLR7 response: TLR7 agonist induced IL-6 production in PBMCs; conditions: for TLR7 Max inhibition: sheet 'TLR7', % maximal inhibition = 'top' of curve fit
Protocol: as §3, §4

TLR9 [3] = test: TLR9 response: ODN 2395 induced IL-6 production in PBMCs
Protocol: as §3, §4

TLR7 [4] = tested on: TLR7
Protocol: as §3, §4

[5] = tested on: ROS production by neutrophils in human whole blood; test: Phagocyte oxidative burst (Phagoburst), neutrophil ROS production in whole blood; format: cell-based; conditions: for IC50: sheet 'IC50 values', whole blood, 10 min, corrected for plasma protein binding, unit inferred, Assay control = DPI, read-out: PB_Neut IC50
Protocol: (§1) Phagocytic oxidative burst was assessed in whole blood samples using the Phagoburst kit (Orpegen Biopharma, #10–0200). The assay was modified to accommodate a 96 well format. Briefly, 50 μL human whole blood was mixed well with compounds (0.1% final DMSO concentration) and incubated for 30 minutes at 37°C, 5% CO2. Then, samples were incubated on ice for 5 minutes, followed by the addition of 10uL of reagent B (opsonized bacteria). Samples were then mixed well and incubated for 10 minutes in a 37°C water bath. Next, 10μL of reagent E (substrate solution) was added to the samples, mixed well and incubated for an additional 10 minutes in the 37°C water bath. Then, 150uL of reagent F (lysis solution) was added to all wells, mixed well and incubated for 20 minutes at room temperature. Samples were washed twice with reagent A and incubated with 90μL of reagent G (DNA staining solution) for 10 minutes, on ice and protected from light. The samples were analyzed in a BD Fortessa flow cytometer. Cells were gated based on Forward and Side scatter properties and high content DNA. A total of 10,000 cell events (high content DNA) were collected, analyzed using FACSDiva or Flowjo and the oxidative burst was measured by the geometric mean fluorescence intensity (GMFI) of the ROS detection dye in the assay (Figure C in S2 Fig).
(§2) Compounds were spiked at 1 μM in plasma. […] Following centrifugation, samples were analyzed using LC-MS/MS. […] A similar methodology was followed for media binding.

TLR3 [6] = tested on: TLR3
Protocol: as §3, §4

TLR9 [7] = tested on: TLR9
Protocol: as §3, §4

[8] = tested on: NK cell mediated killing of K562 cells
Protocol: (§5) A commercially available kit was used to asses NK cell killing (NK Test, Glycotope Biotechnology). Human PBMCs (effector cells) resuspended in culture medium were plated in a round bottom, sterile poly propylene 96 well plate (Corning #3359) and incubated with compounds (final DMSO concentration 0.1%) for 1 hour. Membrane labeled GFP positive K562 cells (target cells) were then added to the effector cells at a 1:50 target–effector ratio. Cells were centrifuged for 3 minutes at 120xg to ensure cell-cell contact and incubated at 37°C, 5% CO2 for 2 hours. Cells were then resuspended in propidium iodide staining solution and incubated at room temperature for 5 minutes. A total of 10,000 target cell events were acquired on a BD Fortessa flow cytometer, and the data was analyzed by FACSDiva or Flowjo.
(§6) We used EC80 stimulation conditions for evaluating the impact of compounds in assays with titrable stimulants. To account for donor-to-donor variability in PBMCs, we used donors that whose EC80 values were within a 3-fold range determined by dose-response experiments with the stimulants. For the NK cell killing assay, we used the conditions and donors that gave the best assay window (i.e., 1:50 target:effector ratio). For the T cell stimulation assay, we performed a dose-titration of αCD3 and αCD28 to determine the stimulation conditions used in this assay. […] Every assay plate contained samples that would elicit a minimal response (no stimulant), maximal response (stimulant with no compounds), compound dose-response (stimulant with compounds) and positive control (stimulant with compound that is known to inhibit the assay). We evaluated the impact of small molecule inhibitors in 8–10 different doses for every PBMC sample in every assay. The values obtained from multiple PBMC donors were compiled together to calculate the inhibitory concentrations of the compounds in a given assay.
(§7) Each assay contained samples that would elicit a minimal and a maximal response, which defined the assay window.

[9] = tested on: NK cell mediated killing of K562 cells; test: NK cell killing function (NK Test, PBMC effectors, K562 target cells)
Protocol: as §5, §6, §7

[10] = tested on: IL-2 production by T cells in human PBMCs
Protocol: (§8) Peripheral blood mononuclear cells in culture media were pre-treated with compounds (0.1% final DMSO concentration) for 45 minutes at 37°C, 5% CO2 and then transferred into anti-CD3 (1 μg/mL, OKT3, eBioscience, San Diego, CA) coated plate containing soluble anti-CD28 (1 μg/mL, Fitzgerald, Acton, MA). Twenty four hours after stimulation, an aliquot of cell culture supernatant was collected and evaluated for IL-2 production (MesoScale Discovery, Rockville, MD) according to manufacturer’s instructions. The remaining culture was allowed to continue incubation for an additional 48 hours. To evaluate proliferation, Click-iT EdU Alexa Flour 647 Assay Kit (Invitrogen, Carlsbad, CA) was used according to manufacturer’s instructions, and proliferation was evaluated at 72 hours following stimulation. The cells were stained with flourochrome conjugated antibodies against CD3, CD4 and CD8 and analyzed in a BD Fortessa flow cytometer by acquiring 8–10,000 events. The data was analyzed by FACSDiva or FlowJo and reported as the percentage of EdU^+CD3^+CD4^+ and EdU^+CD3^+CD8^+ lymphocytes (Figure A in S2 Fig).
(§9) The stimulant was the chemical agent that was used to elicit the response in the assay (i.e., TLR ligands in the TLR assay). We used EC80 stimulation conditions for evaluating the impact of compounds in assays with titrable stimulants. To account for donor-to-donor variability in PBMCs, we used donors that whose EC80 values were within a 3-fold range determined by dose-response experiments with the stimulants. For the NK cell killing assay, we used the conditions and donors that gave the best assay window (i.e., 1:50 target:effector ratio). For the T cell stimulation assay, we performed a dose-titration of αCD3 and αCD28 to determine the stimulation conditions used in this assay. For the phagocyte oxidative burst assay, since we could not screen human whole blood for selecting best responders, we followed the manufacturer’s protocol on 8–10 different human whole blood samples. Every assay plate contained samples that would elicit a minimal response (no stimulant), maximal response (stimulant with no compounds), compound dose-response (stimulant with compounds) and positive control (stimulant with compound that is known to inhibit the assay). We evaluated the impact of small molecule inhibitors in 8–10 different doses for every PBMC sample in every assay. The values obtained from multiple PBMC donors were compiled together to calculate the inhibitory concentrations of the compounds in a given assay.
as §7

[11] = tested on: CD8+ T cell proliferation in human PBMCs
Protocol: as §8, §9, §7

[12] = tested on: CD8+ T cell proliferation in human PBMCs; test: CD8+ T cell proliferation in anti-CD3 + anti-CD28 stimulated PBMCs (EdU flow cytometry, 72 h); conditions: for impact on CD8+ T cell proliferation: PBMC, anti-CD3 + anti-CD28, 72 h
Protocol: as §8, §9, §7

[13] = tested on: gene expression of stimulated human PBMCs; test: Nanostring mRNA profiling in the T cell stimulation assay (anti-CD3 + anti-CD28 PBMCs); format: cell-based; conditions: for impact on gene expression profile of stimulated PBMCs: 24 h after anti-CD3 and anti-CD28 stimulation, n = 3 donors
Protocol: Cell pellets from experiments were lysed in RLT buffer and prepared according to standard protocol recommended by NanoString Technologies. Briefly, lysates were co-incubated with capture and reporter probes (NanoString Technologies Immunology v2 Codeset) in a thermal cycler set at 65°C for 24 hours. Samples were processed and analyzed with a Generation 2 nCounter. Counts from samples were normalized using housekeeping genes scored on the Nanostring platform. Samples with counts less than 20 were excluded from further analysis. The Matlab function ttest2 was used to determine p-values for log2 fold changes, and the function agglomerative was used to perform clustering.

[14] = tested on: CD4+ T cell proliferation in human PBMCs; test: CD4+ T cell proliferation in anti-CD3 + anti-CD28 stimulated PBMCs (EdU flow cytometry, 72 h); conditions: for impact on CD4+ T cell proliferation: PBMC, anti-CD3 + anti-CD28, 72 h
Protocol: as §8, §9, §7

[15] = tested on: CD4+ T cell proliferation in human PBMCs
Protocol: as §8, §9, §7

[16] = tested on: IL-2 production by T cells in human PBMCs; test: T cell activation: IL-2 production in anti-CD3 + anti-CD28 stimulated PBMCs (MSD, 24 h); conditions: for impact on IL-2 production: PBMC, anti-CD3 + anti-CD28, 24 h; for Tcell_IL2 Max inhibition: sheet 'Tcell_IL2', % maximal inhibition = 'top' of curve fit
Protocol: as §8, §9, §7

[17] = tested on: ROS production by monocytes in human whole blood; test: Phagocyte oxidative burst (Phagoburst), monocyte ROS production in whole blood; format: cell-based
Protocol: as §1, §2

[18] = human whole blood, opsonized bacteria

Cc1ccc(S(=O)(=O)/C=C/C#N)cc1 [BAY-11, BAY 11–7082]
effect on TLR3 response, Poly (I:C) induced IP-10 (TLR3 [1]): fully inhibited the response
effect on TLR7 response, IL-6 production (TLR7 [2]): fully inhibited this response
effect on TLR9 response, ODN 2395 induced IL-6 (TLR9 [3]): fully inhibited this response

CC(C)(C)c1nc2c3cc[nH]c(=O)c3c3cc(F)ccc3c2[nH]1 [JAK inhibitor 1]
IC50 (TLR7 [4]): 547 nM
IC50 ([5]; opsonized bacteria): 354 nM
IC50 (TLR3 [6]): 61.1 nM
IC50 (TLR9 [7]): 26 nM
IC50 [8]: 65900 nM

C/C1=C/C(=O)O[C@@H]2C[C@@H](CC[C@H](C)/C=C\C=C\CC1)O[C@@](O)([C@@H]1CSC(=O)N1)C2 [Latrunculin A, latrunculin A]
effect on NK cell killing activity [9]: completely inhibited

Cc1oncc1C(=O)Nc1ccc(C(F)(F)F)cc1 [Leflunomide, leflunomide]
IC50 (TLR9 [7]): 25.4 nM and 25.9 nM
IC50 [8]: 48100 nM

CN(Cc1cnc2nc(N)nc(N)c2n1)c1ccc(C(=O)N[C@@H](CCC(=O)O)C(=O)O)cc1 [Methotrexate]
IC50 [10]: 4960 nM
IC50 [11]: 10.5 nM
maximal inhibition of CD8+ T cell proliferation [12]: around 30%
impact on gene expression profile of stimulated PBMCs ([13]; 1μM): minimal impact on restoring the gene expression profile
maximal inhibition of CD4+ T cell proliferation [14]: around 30%
IC50 [15]: 5.88 nM
impact on IL-2 production [16]: marginal but variable impact
Tcell_IL2 Max inhibition [16]: 27.8

COc1c(C)c2c(c(O)c1C/C=C(\C)CCC(=O)OCCN1CCOCC1)C(=O)OC2 [Mycophenolate Mofetil, mycophenolate mofetil]
impact on CD8+ T cell proliferation [12]: inhibited
IL-2 mRNA expression ([13]; 1μM, 24 h): partially reduced
impact on gene expression profile of stimulated PBMCs ([13]; 1μM): minimal impact on restoring the gene expression profile
impact on CD4+ T cell proliferation [14]: inhibited
IC50 (TLR9 [7]): 2170 nM and 3060 nM
impact on IL-2 production [16]: inhibited
Tcell_IL2 Max inhibition [16]: 49.64

C[C@]12C=CC(=O)C=C1CC[C@@H]1[C@@H]2[C@@H](O)C[C@@]2(C)[C@H]1CC[C@]2(O)C(=O)CO [Prednisolone, prednisolone]
IC50 (TLR7 [4]): 31.7 nM and 34.1 nM
IC50 [10]: 75.5 nM
impact on CD8+ T cell proliferation [12]: did not have an impact
TLR7 Max inhibition (TLR7 [2]): 93.77
IL-2 mRNA expression ([13]; 1μM, 24 h): partially reduced
IL-4 mRNA expression ([13]; 1μM, 24 h): reduced
IL-13 mRNA expression ([13]; 1μM, 24 h): reduced
impact on gene expression profile of stimulated PBMCs ([13]; 1μM): modified the gene expression profile of stimulated samples similar to that of unstimulated cells
IL-2 mRNA expression, time and dose course ([13]; three concentrations, 3h, 6h and 24h following stimulation): impacted in a time- and dose-dependent manner
impact on CD4+ T cell proliferation [14]: did not have an impact
IC50 (TLR3 [6]): 921 nM and 990 nM
effect on TLR9 response, ODN 2395 induced IL-6 (TLR9 [3]): dose-dependent inhibition; also recorded: potent in inhibiting TLR9 responses
IC50 (TLR9 [7]): 33.2 nM and 35.7 nM
IC50 [8]: 21500 nM
impact on IL-2 production [16]: inhibited only IL-2 production
Tcell_IL2 Max inhibition [16]: 71.87

CO[C@H]1C[C@@H]2CC[C@@H](C)[C@@](O)(O2)C(=O)C(=O)N2CCCC[C@H]2C(=O)O[C@H]([C@H](C)C[C@@H]2CC[C@@H](O)[C@H](OC)C2)CC(=O)[C@H](C)/C=C(\C)[C@@H](O)[C@@H](OC)C(=O)[C@H](C)C[C@H](C)/C=C/C=C/C=C/1C [Rapamycin, rapamycin]
IC50 ([17]; Homo sapiens, Monocyte, 10 min, sheet 'IC50 values', whole blood, opsonized bacteria, 10 min, corrected for plasma protein binding, unit inferred, Assay control = DPI, read-out: PB_Mono IC50): 128 nM
reduction / maximal inhibition of monocyte ROS production [17, 18]: 20–40%
PB_Mono Max inhibition ([17]; sheet 'PB_Mono', % maximal inhibition = 'top' of curve fit): 13.41
impact on CD8+ T cell proliferation [12]: did not have an impact
TLR7 Max inhibition (TLR7 [2]): 72.11
IC50 ([5]; Homo sapiens, Neutrophil, opsonized bacteria): 601 nM
reduction / maximal inhibition of neutrophil ROS production [5, 18]: 20–40%
PB_Neut Max inhibition ([5]; sheet 'PB_Neut', % maximal inhibition = 'top' of curve fit): 36.53
impact on CD4+ T cell proliferation [14]: did not have an impact
impact on IL-2 production [16]: did not have an impact

c1ccc([I+]c2ccccc2)cc1 [diphenyliodonium chloride]
effect on monocyte ROS production [17, 18]: completely inhibit
effect on neutrophil ROS production [5, 18]: completely inhibit
